The source of these data is PubChem BioAssay (NCI).

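Five concentrations, 48 hours, 96-well plates. GI50 = concentration required for 50% inhibition of growth. TGI is the concentration that stops growth completely.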 A value given as a limit tells only on which side of the number the result lay.

Holding throughout (assay): DTP human tumour cell line panel, 48 h
The subject of test [1] is UACC-257 melanoma.
For test [2], the system named is K-562 leukemia.
Test [3] relates to CCRF-CEM leukemia.
The subject of test [4] is CAKI-1 renal.
Test [5] deals with T-47D breast.
Test [6] deals with RPMI-8226 leukemia.
The test system of test [7] is NCI-H522 lung.
Test [8] deals with OVCAR-4 ovarian.

Usually GI50 stands for the concentration giving 50% growth inhibition. Usually TGI stands for the concentration at which net growth stops. The low end stands for greater sensitivity of the cells, the high end for lower sensitivity of the cells. `Cc1noc(C)c1-c1cc(O)cc(C(O)c2ccccc2)c1` (stereo unspecified): the GI50 in test [1] was 4.66 µM; in test [2], 8.69 µM; in test [3], 14.8 µM; in test [4], 4.35 µM; in test [5], 7.7 µM; in test [6] it was 1.94 µM. Further, the figures for the GI50 in test [7] and in test [8] were 27 µM and 6.35 µM, respectively. Further, the TGI is more than 100 µM in test [1]; more than 100 µM in test [2]; more than 100 µM in test [3]; more than 100 µM in test [4]; more than 100 µM in test [5]; 9.64 µM in test [6]. Moreover, the TGI in test [7] and in test [8] was more than 100 µM throughout.

Regarding `O=c1cc(N2CCNCC2)oc2c(-c3ccccc3)cccc12`, the GI50 in test [1] is 13.6 µM; in test [2], 13.1 µM; in test [3], 25.5 µM; in test [4] it was 26.8 µM; in test [5], 26.6 µM; in test [6], 15.3 µM. Further, the GI50 in test [7] was 37 µM; in test [8] it was 52.7 µM. In addition, the TGI in test [1] is 29.1 µM; in test [2], 47 µM; in test [3] it was 69.5 µM; in test [4] it was more than 100 µM; in test [5], more than 100 µM; in test [6], 38.5 µM. For the same compound, the TGI in test [7] and in test [8] was more than 100 µM each time.

Consider `c1ccc(-c2cc(C3CO3)c3ccccc3n2)cc1` (stereo unspecified), for which the TGI in test [1] is 42.7 µM; in test [2], 93.1 µM; in test [3], more than 100 µM; in test [4] it was 47.9 µM; in test [5], 65.8 µM; in test [6] it was 58.1 µM. Also, the TGI in test [7] was found to be 14.6 µM; in test [8] it was 37.2 µM.

In the case of `CC(C)(C)c1[nH]cnc1/C=c1\[nH]c(=O)/c(=C/c2ccccc2)[nH]c1=O`, the GI50 in test [1] is 6.32 µM; in test [2], less than 0.01 µM; in test [3], less than 0.01 µM; in test [4], less than 0.01 µM; in test [5], less than 0.0592 µM; in test [6], less than 0.0176 µM. In addition, the GI50 in test [7] is less than 0.01 µM; in test [8], 0.151 µM. Moreover, the TGI in test [1] is 22.6 µM; in test [2] it was more than 100 µM; in test [3], more than 68.4 µM; in test [4] it was 32.7 µM; in test [5], 30.9 µM; in test [6], 13.2 µM. Also, the TGI was found to be 0.159 µM in test [7] and 55.3 µM in test [8].

`COC(=O)c1ccc(NC(=O)Nc2ccc3oc(=O)c4ccccc4c3c2)cc1`: the GI50 in test [1] was 60.7 µM; in test [2], 56.2 µM; in test [3], 0.177 µM; in test [4], 70.9 µM; in test [5] it was more than 100 µM; in test [6], 20.3 µM. Moreover, the GI50 in test [7] is 27.8 µM; in test [8] it was 33.5 µM. Moreover, the TGI is more than 100 µM in test [1]; more than 100 µM in test [2]; 21.7 µM in test [3]; more than 100 µM in test [4]; more than 100 µM in test [5]; more than 100 µM in test [6]. Besides, the concentration for total growth inhibition (TGI) in test [7] and in test [8] was more than 100 µM each time.

On to `Cc1cccc(C(=O)/C=C/SC(=NC#N)SCc2ccccc2)c1`, for which the GI50 is 18.1 µM in test [1]; 22 µM in test [2]; 3.23 µM in test [3]; 13.1 µM in test [4]; 21.6 µM in test [5]; 4.06 µM in test [6]. Besides, the results for the GI50 in test [7] and in test [8] were 27.1 µM and more than 100 µM, respectively. The TGI is 35.9 µM in test [1]; more than 100 µM in test [2]; more than 100 µM in test [3]; 39.3 µM in test [4]; more than 100 µM in test [5]; more than 100 µM in test [6]. Besides, the TGI in test [7] and in test [8] was more than 100 µM in each case.

For `COc1ccc(-c2nn(-c3cccc(NC(=O)c4ccc5c(c4)OCCO5)c3)cc2-c2ccncc2)cc1Cl`, the GI50 was 3.17 µM in test [1]; 0.71 µM in test [2]; 1.68 µM in test [3]; 2.63 µM in test [4]; 2.96 µM in test [5]; 1.36 µM in test [6]. In addition, the figures for the GI50 in test [7] and in test [8] were 0.454 µM and 4.39 µM, respectively. The TGI in test [1] was 20.5 µM; in test [2], 15.9 µM; in test [3], 10.3 µM; in test [4], 15.8 µM; in test [5] it was 47.7 µM; in test [6], 6.65 µM. Besides, the TGI in test [7] was 2.59 µM; in test [8], more than 100 µM.

In the case of `O=C(Nc1ccc(Oc2ccc3nc(NC(=O)c4ccccc4)[nH]c3c2)cc1)Nc1cc(C(F)(F)F)ccc1F`, the GI50 was 1.39 µM in test [1]; 0.262 µM in test [2]; 0.657 µM in test [3]; 1.09 µM in test [4]; 0.783 µM in test [5]; 0.792 µM in test [6]. Also, the figures for the GI50 in test [7] and in test [8] were 1.6 µM and 0.678 µM, respectively. Moreover, the TGI in test [1] was 11.3 µM; in test [2], more than 7.59 µM; in test [3], more than 9.17 µM; in test [4] it was 7.8 µM; in test [5], 3.17 µM; in test [6], 3.86 µM. The TGI in test [7] is more than 14.9 µM; in test [8] it was 2.71 µM.

`Oc1c(CN2CCCC2)cc(COCc2ccc(Br)cc2)c2cccnc12`: the GI50 is 1.34 µM in test [1]; 0.397 µM in test [2]; 0.443 µM in test [3]; 0.106 µM in test [4]; 0.501 µM in test [5]; 1.12 µM in test [6]. Moreover, the GI50 in test [7] is 0.297 µM; in test [8], 0.508 µM. Besides, the TGI in test [1] came to 3.02 µM; in test [2] it was 10.3 µM; in test [3], 2.65 µM; in test [4], 2.28 µM; in test [5], 3.08 µM; in test [6], 4.02 µM. For the same compound, the TGI is 1.17 µM in test [7] and 3.02 µM in test [8].
